Values joined by “and” are separate entries in the source; they are usually repeats but may differ in a detail not shown here. Identical values can stand only once. Toxic doses and inconclusive results are not listed.
Tested on: L1210 leukemia ip in BDF1 mice, survival T/C
Assay: NCI In Vivo Anticancer Drug Screen. Data for tumor model L1210 Leukemia (intraperitoneal) in B6D2F1 (BDF1) mice
Conditions: endpoint: mean survival time, higher = longer survival
Summary of the method: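 Value reflects the ratio of survival in compound-treated mice to survival in vehicle-treated controls, with both groups carrying the same transplanted tumor.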

[1] = dose: 100.0 mg/kg/injection, schedule: Q04DX003 (ip), vehicle: saline with Tween-80
[2] = dose: 100.0 mg/kg/injection, schedule: Q04DX002 (ip), vehicle: Klucel (hydroxypropylcellulose) (HPC)
[3] = dose: 200.0 mg/kg/injection, schedule: Q04DX002 (ip), vehicle: Klucel (hydroxypropylcellulose) (HPC)
[4] = dose: 400.0 mg/kg/injection, schedule: Q04DX002 (ip), vehicle: Klucel (hydroxypropylcellulose) (HPC)
[5] = dose: 100.0 mg/kg/injection, schedule: Q01DX001 (ip), vehicle: saline
[6] = dose: 200.0 mg/kg/injection, schedule: Q01DX001 (ip), vehicle: saline
[7] = dose: 400.0 mg/kg/injection, schedule: Q01DX001 (ip), vehicle: saline
[8] = dose: 100.0 mg/kg/injection, schedule: Q01DX001 (ip), vehicle: carboxymethylcellulose (CMC)
[9] = dose: 50.0 mg/kg/injection, schedule: Q01DX009 (ip), vehicle: saline with Tween-80
[10] = dose: 100.0 mg/kg/injection, schedule: Q01DX009 (ip), vehicle: saline with Tween-80
[11] = dose: 400.0 mg/kg/injection, schedule: Q01DX001 (ip), vehicle: carboxymethylcellulose (CMC)
[12] = dose: 100.0 mg/kg/injection, schedule: Q04DX003 (ip), vehicle: saline
[13] = dose: 25.0 mg/kg/injection, schedule: Q04DX003 (ip), vehicle: saline

SMILES: CC(C)NC(=O)Nc1cccc(OC(=O)NC(C)(C)C)c1
- T/C [1]: 88 % of control
- T/C (dose: 200.0 mg/kg/injection, schedule: Q04DX003 (ip), vehicle: saline with Tween-80): 91 % of control
- T/C (dose: 400.0 mg/kg/injection, schedule: Q04DX003 (ip), vehicle: saline with Tween-80): 89 % of control

SMILES: ClCC1COC(Cc2ccccc2)O1 (stereo not drawn)
- T/C (dose: 222.0 mg/kg/injection, schedule: Q01DX Z (ip), vehicle: saline): 97 % of control
- T/C (dose: 333.0 mg/kg/injection, schedule: Q01DX Z (ip), vehicle: saline): 97 % of control
- T/C (dose: 500.0 mg/kg/injection, schedule: Q01DX Z (ip), vehicle: saline): 103 % of control

SMILES: Clc1ccc(N=Nc2ccccn2)cc1
- T/C [2]: 101 % of control
- T/C [3]: 96 % of control
- T/C [4]: 93 % of control

SMILES: Cc1nc(N)c2nc(-c3ccc(N(CCO)CCO)cc3)c(N)nc2n1
- T/C [5]: 98 % of control
- T/C [6]: 95 % of control
- T/C [7]: 89 % of control

SMILES: COc1ccc(CN(C)C)c(C(O)c2ccccc2)c1 (stereo not drawn)
- T/C (dose: 50.0 mg/kg/injection, schedule: Q01DX001 (ip), vehicle: carboxymethylcellulose (CMC)): 101 % of control
- T/C [8]: 103 % of control
- T/C (dose: 200.0 mg/kg/injection, schedule: Q01DX001 (ip), vehicle: carboxymethylcellulose (CMC)): 103 % of control

SMILES: CCCCCCCCCCCCNCc1ccc(O)cc1
- T/C (dose: 25.0 mg/kg/injection, schedule: Q01DX001 (ip), vehicle: other): 95 % of control
- T/C (dose: 25.0 mg/kg/injection, schedule: Q01DX009 (ip), vehicle: saline with Tween-80): 96 % of control
- T/C (dose: 25.0 mg/kg/injection, schedule: Q04DX003 (ip), vehicle: saline with Tween-80): 98 % of control
- T/C (dose: 50.0 mg/kg/injection, schedule: Q01DX001 (ip), vehicle: other): 93 % of control
- T/C [9]: 93 % of control
- T/C (dose: 50.0 mg/kg/injection, schedule: Q04DX003 (ip), vehicle: saline with Tween-80): 101 % of control
- T/C (dose: 100.0 mg/kg/injection, schedule: Q01DX001 (ip), vehicle: other): 93 % of control and 90 % of control
- T/C [10]: 88 % of control
- T/C [1]: 102 % of control

SMILES: CNc1ccc(/C=C2\C=Cc3ccccc32)cc1Cl
- T/C [8]: 97 % of control
- T/C [11]: 92 % of control

SMILES: Cc1cc(C)c2c(=O)[nH][nH]c2n1
- T/C [9]: 105 % of control
- T/C [10]: 100 % of control
- T/C (dose: 200.0 mg/kg/injection, schedule: Q01DX009 (ip), vehicle: saline with Tween-80): 91 % of control

SMILES: O=C(Nc1cccc(O)c1)C(O)C(O)C(O)C(O)CO (stereo not drawn)
- T/C [12]: 97 % of control
- T/C (dose: 200.0 mg/kg/injection, schedule: Q04DX003 (ip), vehicle: saline): 94 % of control
- T/C (dose: 400.0 mg/kg/injection, schedule: Q04DX003 (ip), vehicle: saline): 91 % of control

SMILES: CCOc1ccccc1/C=C(\C#N)c1cccc(Cl)c1
- T/C (dose: 100.0 mg/kg/injection, schedule: Q01DX009 (ip), vehicle: other): 87 % of control
- T/C (dose: 200.0 mg/kg/injection, schedule: Q01DX009 (ip), vehicle: other): 88 % of control

SMILES: O=C1OCC/C1=C/CCCCC/C=C1\CCOC1=O
- T/C (dose: 100.0 mg/kg/injection, schedule: Q01DX001 (sc), vehicle: olive oil, sesame oil, peanut oil): 103 % of control
- T/C (dose: 100.0 mg/kg/injection, schedule: Q04DX003 (sc), vehicle: olive oil, sesame oil, peanut oil): 104 % of control
- T/C (dose: 200.0 mg/kg/injection, schedule: Q01DX001 (sc), vehicle: olive oil, sesame oil, peanut oil): 100 % of control
- T/C (dose: 200.0 mg/kg/injection, schedule: Q04DX003 (sc), vehicle: olive oil, sesame oil, peanut oil): 100 % of control
- T/C (dose: 400.0 mg/kg/injection, schedule: Q01DX001 (sc), vehicle: olive oil, sesame oil, peanut oil): 96 % of control
- T/C (dose: 400.0 mg/kg/injection, schedule: Q04DX003 (sc), vehicle: olive oil, sesame oil, peanut oil): 102 % of control

SMILES: NC(CCl)=NCCN1CCNC1=O
- T/C (dose: 100.0 mg/kg/injection, schedule: Q04DX002 (ip), vehicle: saline): 107 % of control
- T/C (dose: 200.0 mg/kg/injection, schedule: Q04DX002 (ip), vehicle: saline): 104 % of control
- T/C (dose: 400.0 mg/kg/injection, schedule: Q04DX002 (ip), vehicle: saline): 96 % of control

SMILES: Cc1ccc(NC(=O)N(CCBr)N=O)cc1
- T/C (dose: 26.0 mg/kg/injection, schedule: Q01DX015 (ip), vehicle: carboxymethylcellulose (CMC)): 117 % of control
- T/C (dose: 39.0 mg/kg/injection, schedule: Q01DX015 (ip), vehicle: carboxymethylcellulose (CMC)): 101 % of control
- T/C (dose: 58.0 mg/kg/injection, schedule: Q01DX015 (ip), vehicle: carboxymethylcellulose (CMC)): 101 % of control and 121 % of control
- T/C (dose: 88.0 mg/kg/injection, schedule: Q01DX015 (ip), vehicle: carboxymethylcellulose (CMC)): 103 % of control
- T/C [8]: 122 % of control
- T/C (dose: 133.0 mg/kg/injection, schedule: Q01DX015 (ip), vehicle: carboxymethylcellulose (CMC)): 89 % of control
- T/C (dose: 266.0 mg/kg/injection, schedule: Q01DX001 (ip), vehicle: carboxymethylcellulose (CMC)): 168 % of control
- T/C [11]: 150 % of control and 153 % of control

SMILES: CCCCCCCCCCCC(=O)Nc1ccc(O)cc1
- T/C (dose: 25.0 mg/kg/injection, schedule: Q01DX009 (ip), vehicle: gum acacia): 93 % of control
- T/C (dose: 50.0 mg/kg/injection, schedule: Q01DX009 (ip), vehicle: gum acacia): 93 % of control
- T/C (dose: 100.0 mg/kg/injection, schedule: Q01DX009 (ip), vehicle: gum acacia): 96 % of control
- T/C (dose: 100.0 mg/kg/injection, schedule: Q04DX003 (ip), vehicle: gum acacia): 88 % of control
- T/C (dose: 200.0 mg/kg/injection, schedule: Q01DX009 (ip), vehicle: gum acacia): 92 % of control
- T/C (dose: 200.0 mg/kg/injection, schedule: Q04DX003 (ip), vehicle: gum acacia): 86 % of control
- T/C (dose: 400.0 mg/kg/injection, schedule: Q01DX009 (ip), vehicle: gum acacia): 92 % of control
- T/C (dose: 400.0 mg/kg/injection, schedule: Q04DX003 (ip), vehicle: gum acacia): 95 % of control

SMILES: CSC(=O)C(C)(C)C
- T/C (dose: 75.0 mg/kg/injection, schedule: Q01DX001 (ip), vehicle: saline): 103 % of control
- T/C (dose: 150.0 mg/kg/injection, schedule: Q01DX001 (ip), vehicle: saline): 97 % of control

SMILES: C=C1c2ccccc2N(C)C1(COc1ccc(Cl)c(C)c1)OC(=O)c1cccc(Cl)c1 (stereo not drawn)
- T/C [2]: 95 % of control
- T/C [3]: 95 % of control
- T/C [4]: 88 % of control

SMILES: Cc1ccc(S(=O)(=O)N2CCC(O)(c3ccccc3)CC2)cc1
- T/C (dose: 100.0 mg/kg/injection, schedule: Q01DX009 (ip), vehicle: Klucel (hydroxypropylcellulose) (HPC)): 91 % of control
- T/C (dose: 100.0 mg/kg/injection, schedule: Q04DX003 (ip), vehicle: Klucel (hydroxypropylcellulose) (HPC)): 90 % of control
- T/C (dose: 200.0 mg/kg/injection, schedule: Q01DX009 (ip), vehicle: Klucel (hydroxypropylcellulose) (HPC)): 90 % of control
- T/C (dose: 200.0 mg/kg/injection, schedule: Q04DX003 (ip), vehicle: Klucel (hydroxypropylcellulose) (HPC)): 91 % of control
- T/C (dose: 400.0 mg/kg/injection, schedule: Q01DX009 (ip), vehicle: Klucel (hydroxypropylcellulose) (HPC)): 92 % of control
- T/C (dose: 400.0 mg/kg/injection, schedule: Q04DX003 (ip), vehicle: Klucel (hydroxypropylcellulose) (HPC)): 89 % of control

SMILES: CN1CCCN(C)C1c1ccc(Cl)cc1
- T/C (dose: 6.25 mg/kg/injection, schedule: Q04DX003 (ip), vehicle: saline): 99 % of control
- T/C (dose: 12.5 mg/kg/injection, schedule: Q04DX003 (ip), vehicle: saline): 99 % of control
- T/C [13]: 91 % of control

SMILES: CCCC(CCC)(CCC)CCN
- T/C (dose: 5.0 mg/kg/injection, schedule: Q01DX Z (ip), vehicle: carboxymethylcellulose (CMC)): 91 % of control
- T/C (dose: 10.0 mg/kg/injection, schedule: Q01DX Z (ip), vehicle: carboxymethylcellulose (CMC)): 112 % of control
- T/C (dose: 15.0 mg/kg/injection, schedule: Q01DX Z (ip), vehicle: carboxymethylcellulose (CMC)): 106 % of control
- T/C (dose: 20.0 mg/kg/injection, schedule: Q01DX Z (ip), vehicle: carboxymethylcellulose (CMC)): 101 % of control

SMILES: CC[n+]1ccccc1CCC(=O)Nc1ccccc1
- T/C [13]: 97 % of control
- T/C (dose: 50.0 mg/kg/injection, schedule: Q04DX003 (ip), vehicle: saline): 92 % of control
- T/C [12]: 95 % of control

SMILES: CC1CCCC1C(=Nc1ccc(Cl)c(Cl)c1)N1CCCCC1 (stereo not drawn)
- T/C [5]: 105 % of control
- T/C [6]: 100 % of control
- T/C [7]: 102 % of control

— PubChem BioAssay AID248 (DTP/NCI, 2004)
